This is an account of results in US10414769B2, “5,8-dimethyl-9-phenyl-5,8-dihydro-6H-pyrazolo[3,4-h]quinazolin-2-yl)-(1H-pyrazol-3-yl)-amines as IGF-1R/IR inhibitors” (Boehringer Ingelheim International GmbH, priority 2015, dated 2019).

The target of one assay is T1, EPHB2 (Homo sapiens, UniProt P29323).
T1 construct: purchased Life Technologies PV 3625
T1 sequence (P29323 19-1055): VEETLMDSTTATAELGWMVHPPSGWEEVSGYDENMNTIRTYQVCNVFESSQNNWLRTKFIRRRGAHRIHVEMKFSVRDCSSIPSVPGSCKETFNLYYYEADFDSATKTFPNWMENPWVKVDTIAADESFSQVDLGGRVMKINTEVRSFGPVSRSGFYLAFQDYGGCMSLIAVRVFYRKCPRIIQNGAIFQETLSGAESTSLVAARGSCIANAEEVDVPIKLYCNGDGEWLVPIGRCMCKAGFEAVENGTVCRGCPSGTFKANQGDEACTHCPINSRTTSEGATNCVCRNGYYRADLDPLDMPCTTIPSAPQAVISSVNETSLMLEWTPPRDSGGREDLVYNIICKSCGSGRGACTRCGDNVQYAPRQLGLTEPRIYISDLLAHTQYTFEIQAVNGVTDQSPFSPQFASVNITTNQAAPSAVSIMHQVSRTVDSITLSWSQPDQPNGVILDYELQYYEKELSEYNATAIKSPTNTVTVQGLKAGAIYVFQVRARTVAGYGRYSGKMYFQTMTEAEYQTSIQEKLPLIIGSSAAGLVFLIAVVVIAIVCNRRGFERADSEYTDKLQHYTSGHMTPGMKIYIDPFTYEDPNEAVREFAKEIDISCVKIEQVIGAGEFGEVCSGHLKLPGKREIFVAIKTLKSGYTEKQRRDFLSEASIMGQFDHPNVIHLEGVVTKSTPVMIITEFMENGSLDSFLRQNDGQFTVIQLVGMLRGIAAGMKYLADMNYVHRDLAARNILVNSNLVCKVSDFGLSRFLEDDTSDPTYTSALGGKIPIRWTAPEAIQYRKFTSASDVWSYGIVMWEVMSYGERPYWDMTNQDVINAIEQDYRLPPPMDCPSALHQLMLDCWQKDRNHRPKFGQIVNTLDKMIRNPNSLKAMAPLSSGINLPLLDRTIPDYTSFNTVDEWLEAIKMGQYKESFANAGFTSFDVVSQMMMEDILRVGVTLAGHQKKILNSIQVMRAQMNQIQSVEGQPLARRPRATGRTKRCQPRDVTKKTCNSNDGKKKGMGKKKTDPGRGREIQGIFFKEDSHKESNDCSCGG
The assay is described as follows: Z'-LYTE kinase selectivity assay EPHB2. It counts as biochemical. The text has this: (§1) In order to compare the kinase selectivity of compounds (I) according to the invention with known prior art compounds the commercially provided SelectScreen® Kinase Profiling Service (Z′-LYTE®) was used (Life Technologies GmbH, Darmstadt, Germany) to investigate the ability of the compounds to inhibit a number of different, representatively selected human kinases. Further details regarding this service are available on the Life Technologies website at
(§2) The Z′-LYTE® biochemical assay employs a fluorescence-based, coupled-enzyme format and is based on the differential sensitivity of phosphorylated and non-phosphorylated peptides to proteolytic cleavage. The peptide substrate is labeled with two fluorophores—one at each end—that make up a FRET pair.
(§3) In the primary reaction, the kinase transfers the gamma-phosphate of ATP to a single tyrosine, serine or threonine residue in a synthetic FRET-peptide. In the secondary reaction, a site-specific protease recognizes and cleaves non-phosphorylated FRET-peptides. Phosphorylation of FRET-peptides suppresses cleavage by the Development Reagent. Cleavage disrupts FRET between the donor (i.e., coumarin) and acceptor (i.e., fluorescein) fluorophores on the FRET-peptide, whereas uncleaved, phosphorylated FRET-peptides maintain FRET. A ratiometric method, which calculates the ratio (the Emission Ratio) of donor emission to acceptor emission after excitation of the donor fluorophore at 400 nm, is used to quantitate reaction progress, as shown in the equation below.
(§4) The Test Compounds are screened at 1 μM.
The 2×EPHB2 (# PV 3625)/Tyr 02 (Z′-LYTE® Kinase Assay Kit—Tyrosine 2 Peptide, # PV 3191) mixture is prepared in 50 mM HEPES pH 7.5, 0.01% BRIJ-35, 10 mM MgCl2, 1 mM EGTA. The final 10 μL Kinase Reaction consists of 0.55-36 ng EPHB2 and 2 μM Tyr 02 in 50 mM HEPES pH 7.5, 0.01% BRIJ-35, 10 mM MgCl2, 1 mM EGTA. After the 1 hour Kinase Reaction incubation, 5 μL of a 1:128 dilution of Development Reagent A is added.

Another assay concerns the target T2, PDK1 Direct (Homo sapiens, UniProt O15530).
T2 sequence (O15530 1-556): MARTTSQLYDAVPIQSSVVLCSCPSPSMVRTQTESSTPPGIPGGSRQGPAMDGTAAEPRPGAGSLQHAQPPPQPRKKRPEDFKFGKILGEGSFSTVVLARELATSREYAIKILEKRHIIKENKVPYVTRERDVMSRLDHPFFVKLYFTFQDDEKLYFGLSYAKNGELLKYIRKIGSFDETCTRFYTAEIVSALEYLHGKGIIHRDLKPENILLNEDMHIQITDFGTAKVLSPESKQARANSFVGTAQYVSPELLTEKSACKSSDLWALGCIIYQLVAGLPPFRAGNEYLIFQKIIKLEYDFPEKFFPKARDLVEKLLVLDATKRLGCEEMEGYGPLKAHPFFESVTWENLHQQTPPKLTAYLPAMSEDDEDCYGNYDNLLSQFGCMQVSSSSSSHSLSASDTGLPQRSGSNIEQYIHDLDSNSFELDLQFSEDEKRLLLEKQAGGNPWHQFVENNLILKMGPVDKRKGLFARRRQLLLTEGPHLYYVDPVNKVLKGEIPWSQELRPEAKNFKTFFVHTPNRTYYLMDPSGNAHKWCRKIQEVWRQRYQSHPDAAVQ
Nature of the assay: Z'-LYTE kinase selectivity assay PDK1. In kind it is biochemical.
Source text: as §1, §2, §3, §4
The 2×PDK1 Direct/Ser/Thr 07 (Z′-LYTE® Kinase Assay Kit—Ser/Thr 7 Peptide, # PV 3180) mixture is prepared in 50 mM Tris pH 8.5, 0.01% BRIJ-35, 10 mM MgCl2, 1 mM EGTA, 0.02% NaN3. The final 10 μL Kinase Reaction consists of 5.04-29.4 ng PDK1 Direct and 2 μM Ser/Thr 07 in 50 mM Tris/HEPES pH 8.0, 0.01% BRIJ-35, 10 mM MgCl2, 1 mM EGTA, 0.01% NaN3. After the 1 hour Kinase Reaction incubation, 5 μL of a 1:65000 dilution of Development Reagent A is added.

By inhibition is commonly meant the change of the read-out against control, counted positive when it falls. Take `C[C@@H]1Cc2nn(C)c(-c3ccccc3)c2-c2nc(Nc3ccn(CCN4CCN(C)CC4)n3)ncc21` [Compound I-1]: the values for the inhibition at 1 µM at EPHB2 and against PDK1 Direct were 64% and -2%, respectively.

Turning to `COCCN1CCN(CCn2ccc(Nc3ncc4c(n3)-c3c(nn(C)c3-c3ccccc3)C[C@H]4C)n2)CC1` [Compound I-11], the inhibition at 1 µM on EPHB2 was determined as 56%; against PDK1 Direct it was 20%.

Consider `C[C@@H]1Cc2nn(C)c(-c3ccccc3)c2-c2nc(Nc3ccn(CCN4CCOCC4)n3)ncc21` [Compound I-2], for which the inhibition at 1 µM at EPHB2 was 68%; at PDK1 Direct, 1%.

With `C[C@@H]1Cc2nn(C)c(-c3ccccc3)c2-c2nc(Nc3ccn(CCN4CCN(CC(C)(C)O)CC4)n3)ncc21` [Compound I-3], the figures for the inhibition at 1 µM on EPHB2 and at PDK1 Direct were 77% and 9%, respectively.

In the case of `C[C@@H]1Cc2nn(C)c(-c3ccccc3)c2-c2nc(Nc3ccn(CCN4CCN(CC5CCCO5)CC4)n3)ncc21` (some centres unmarked) [Compound I-9], the values for the inhibition at 1 µM on EPHB2 and against PDK1 Direct were 73% and 6%, respectively.

Take `CC(O)CN1CCN(CCn2ccc(Nc3ncc4c(n3)-c3c(nn(C)c3-c3ccccc3)C[C@H]4C)n2)CC1` (some centres unmarked) [Compound I-7]: the inhibition at 1 µM amounted to 82% on EPHB2 and 3% against PDK1 Direct.

`C[C@@H]1Cc2nn(C)c(-c3ccccc3)c2-c2nc(Nc3ccn(CCN4CCN(CC(=O)OC5CCOCC5)CC4)n3)ncc21` [Compound I-8]: the results for the inhibition at 1 µM against EPHB2 and on PDK1 Direct were 62% and 5%, respectively.
